Measurements from US12570631B2, “Substituted N-(4-(pyrimidin and pyridin-4-yl)benzylcarboxamides and its use for treating disorders responsive to inhibition of Btk” (BIOGEN MA INC., priority 2019, dated 2026).
Where two headings read alike, the source gives them in different places.

What was measured:
[1] = biological target: BTK (Homo sapiens (Human), UniProt Q06187); experiment: In vitro BTK kinase assay: Btk-PolyGAT-LS assay; assay type: biochemical; settings: ATP 10 μM, polyGAT 100 nM, BTK 0.25 nM, 30 minutes
[2] = tested on: CD69 expression on CD19+ B cells in human whole blood; experiment: In vitro whole blood CD69 assay; assay type: cell-based; settings: B-cell
[3] = Whole Blood CD69 inhibition, human heparinized blood, anti-human IgD stimulation, CD19+ B cells expressing CD69, read-out: IC50

Sequence of BTK (Q06187 whole entry): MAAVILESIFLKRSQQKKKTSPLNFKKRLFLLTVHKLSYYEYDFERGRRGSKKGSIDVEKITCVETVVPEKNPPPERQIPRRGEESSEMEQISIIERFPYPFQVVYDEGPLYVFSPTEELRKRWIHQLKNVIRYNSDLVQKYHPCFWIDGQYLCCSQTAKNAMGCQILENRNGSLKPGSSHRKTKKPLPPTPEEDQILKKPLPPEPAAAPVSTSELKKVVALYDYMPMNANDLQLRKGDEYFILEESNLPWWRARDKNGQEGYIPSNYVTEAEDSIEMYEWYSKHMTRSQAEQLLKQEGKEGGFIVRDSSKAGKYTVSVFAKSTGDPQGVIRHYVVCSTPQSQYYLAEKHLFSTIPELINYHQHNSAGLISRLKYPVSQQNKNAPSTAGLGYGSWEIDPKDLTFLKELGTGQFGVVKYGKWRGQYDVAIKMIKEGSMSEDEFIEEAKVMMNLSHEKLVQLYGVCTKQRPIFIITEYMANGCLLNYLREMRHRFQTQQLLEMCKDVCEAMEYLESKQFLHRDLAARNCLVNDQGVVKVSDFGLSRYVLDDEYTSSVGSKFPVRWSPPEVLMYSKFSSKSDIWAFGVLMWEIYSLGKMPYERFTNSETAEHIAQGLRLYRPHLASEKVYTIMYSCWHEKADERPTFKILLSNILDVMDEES

Structure (SMILES)	IC50 [1] [nM]	IC50 [2, 3] [nM]	IC50 ([2]; Homo sapiens) [nM]
C=CC(=O)N(C)CCOc1cnccc1-c1ccc(CN2CCc3c(cnn3C(C)(C)C)C2=O)c(C)c1 [Example 12, N-(2-((4-(4-((1-(tert-butyl)-4-oxo-1,4,6,7-tetrahydro-5H-pyrazolo[4,3-c]pyridin-5-yl)methyl)-3-methylphenyl)pyridin-3-yl)oxy)ethyl)-N-methylacrylamide]	< 1	100 to 1000	–
C=CC(=O)N(C)CCOc1c(N)ncnc1-c1ccc(CNC(=O)c2noc(C(C)(C)C)n2)c(C)c1 [Example 2, N-(4-(6-amino-5-(2-(N-methylacrylamido)ethoxy)pyrimidin-4-yl)-2-methylbenzyl)-5-(tert-butyl)-1,2,4-oxadiazole-3-carboxamide]	< 1	–	< 100
C=CC(=O)N(C)CCOc1c(N)ncnc1-c1ccc(CN2CCc3c(cnn3C(C)(C)C)C2=O)c(C)c1 [Example 6, N-(2-((4-amino-6-(4-((1-(tert-butyl)-4-oxo-1,4,6,7-tetrahydro-5H-pyrazolo[4,3-c]pyridin-5-yl)methyl)-3-methylphenyl)pyrimidin-5-yl)oxy)ethyl)-N-methylacrylamide]	< 1	< 100	–
C=CC(=O)N(C)CCOc1c(N)ncnc1-c1ccc(CNC(=O)c2nnc(C(C)(C)C)o2)c(C)c1 [Example 1, N-(4-(6-amino-5-(2-(N-methylacrylamido)ethoxy)pyrimidin-4-yl)-2-methylbenzyl)-5-(tert-butyl)-1,3,4-oxadiazole-2-carboxamide]	< 1	–	< 100
C=CC(=O)N(C)CCOc1cncnc1-c1ccc(CNC(=O)c2noc(C(C)(C)C)n2)c(C)c1 [Example 3, 5-(tert-butyl)-N-(2-methyl-4-(5-(2-(N-methylacrylamido)ethoxy)-pyrimidin-4-yl)benzyl)-1,2,4-oxadiazole-3-carboxamide]	< 1	< 100	–
C=CC(=O)N1CCCC[C@H]1C(=O)Nc1cnccc1-c1ccc(CNC(=O)c2noc(C(C)(C)C)n2)c(C)c1 [Example 32, (S)-N-(4-(3-(1-acryloylpiperidine-2-carboxamido)pyridin-4-yl)-2-methylbenzyl)-5-(tert-butyl)-1,2,4-oxadiazole-3-carboxamide]	< 1	< 100	–
C=CC(=O)N(C)CCOc1c(N)ncnc1-c1ccc(CNC(=O)c2cnn(C(C)(C)C)c2)c(C)c1 [Example 10, N-(4-(6-amino-5-(2-(N-methylacrylamido)ethoxy)pyrimidin-4-yl)-2-methylbenzyl)-1-(tert-butyl)-1H-pyrazole-4-carboxamide]	< 1	< 100	–
Cc1cc(-c2ccncc2OC2CCN(C(=O)/C=C/CN(C)C)CC2)ccc1CNC(=O)c1cn(C(C)(C)C)nn1 [Example 42, (E)-1-(tert-butyl)-N-(4-(3-((1-(4-(dimethylamino)but-2-enoyl)piperidin-4-yl)oxy)pyridin-4-yl)-2-methylbenzyl)-1H-1,2,3-triazole-4-carboxamide]	< 1	100 to 1000	–
